The record followed here is patent US20230107642A1 (Erasca, Inc., priority 2020, published 2023).

A short description of this data set: Determination of total drug concentration in rat brain (BBB penetration). It counts as in vivo. The settings on record: male SD rat, 2 mg/kg IV infusion for 4 hours, brain collected at end of 4 hours.
`C=CC(=O)N1[C@H](C)CN(c2nc(=O)n3c4c(c(-c5ccc(F)c6sccc56)c(C(F)(F)F)cc24)SC[C@@H]3COC)C[C@@H]1C` [Example 13-68]: the BBB activity result was “− (Compounds that did not meet this threshold are indicated as “−”)”.
Regarding `C=CC(=O)N1[C@H](C)CN(c2nc(=O)n3c4c(c(-c5ccc(F)cc5)c(Cl)cc24)SC[C@@H](OC)C3)C[C@@H]1C` [Example 13-69], the BBB activity entry was “− (Compounds that did not meet this threshold are indicated as “−”)”.
Take `C=CC(=O)N1[C@H](C)CN(c2nc(=O)n3c4c(c(-c5ccc(F)cc5F)c(C(F)(F)F)cc24)SC[C@@H](OC)C3)C[C@@H]1C` [Example 13-72]: the BBB activity result is given as “− (Compounds that did not meet this threshold are indicated as “−”)”.
Under `C=CC(=O)N1C[C@H](C)N(c2nc(=O)n3c4c(c(-c5cc(Cl)c(F)cc5F)c(C(F)(F)F)cc24)CC[C@@H]3CN2CCC3(CC2)COC3)C[C@H]1C` [Example 13-74] stands “− (Compounds that did not meet this threshold are indicated as “−”)”; under `C=C(F)C(=O)N1CCN(c2nc(OC[C@H]3CCCN3C)nc3c2CCN(c2cccc4cccc(Cl)c24)C3)C[C@@H]1CC#N` [Example 13-75], “− (Compounds that did not meet this threshold are indicated as “−”)”.
Under `C=CC(=O)N1C[C@H](C)N(c2nc(=O)n3c4c(c(-c5ccc(F)cc5F)c(Cl)cc24)OC[C@H]3CCCN2C[C@H]3C[C@@H]2CO3)C[C@H]1C` [Example 13-76] stands “− (Compounds that did not meet this threshold are indicated as “−”)”.
In the case of `C=CC(=O)N1[C@H](C)CN(c2nc(=O)n3c4c(c(-c5ccc(F)c(Cl)c5)c(C(F)(F)F)cc24)SC[C@@H](OCOC)C3)C[C@@H]1C` [Example 13-78], the BBB activity entry is “− (Compounds that did not meet this threshold are indicated as “−”)”.
For `C=CC(=O)N1C[C@H](C)N(c2nc(=O)n3c4c(c(-c5ccc(F)cc5)c(C(F)(F)F)cc24)SCC2(COC2)C3)C[C@H]1C` [Example 13-79], the BBB activity entry is recorded as “− (Compounds that did not meet this threshold are indicated as “−”)”.
`C=CC(=O)N1C[C@H](C)N(c2nc(=O)n3c4c(c(-c5ccc(F)cc5F)c(Cl)cc24)OC[C@H]3CCCN2CCC(F)(F)C2)C[C@H]1C` [Example 13-80]: the BBB activity result is listed as “− (Compounds that did not meet this threshold are indicated as “−”)”.
As for `C=CC(=O)N1CCN(c2nc(=O)n3c4c(c(-c5cc(Cl)c(F)cc5F)c(Cl)cc24)OC[C@@H]3CN2CCN(CC(F)F)CC2)[C@@H](C)C1` [Example 13-81], the BBB activity result is reported as “− (Compounds that did not meet this threshold are indicated as “−”)”.
Take `C=CC(=O)N1[C@H](C)CN(c2nc(=O)n3c4c(c(-c5ccc(F)c(Cl)c5)c(C(F)(F)F)cc24)SC[C@@H](OCC)C3)C[C@@H]1C` [Example 13-82]: the BBB activity result is given as “− (Compounds that did not meet this threshold are indicated as “−”)”.
In the case of `C=CC(=O)N1[C@H](C)CN(c2nc(=O)n3c4c(c(-c5ccc(F)cc5)c(C(F)(F)F)cc24)SC[C@@H](OCOC)C3)C[C@@H]1C` [Example 13-83], the BBB activity entry is listed as “− (Compounds that did not meet this threshold are indicated as “−”)”.
In the case of `C=CC(=O)N1[C@H](C)CN(c2nc(=O)n3c4c(c(-c5cc(Cl)c(F)cc5F)c(C(F)(F)F)cc24)SC[C@@H](N2CCOCC2)C3)C[C@@H]1C` [Example 13-84], the BBB activity entry is “− (Compounds that did not meet this threshold are indicated as “−”)”.
Turning to `C=CC(=O)N1C[C@H](C)N(c2nc(=O)n3c4c(c(-c5ccc(F)cc5F)c(Cl)cc24)OC[C@H]3CC2CCN(C)CC2)C[C@H]1C` [Example 13-85], the BBB activity result is recorded as “− (Compounds that did not meet this threshold are indicated as “−”)”.
`C=CC(=O)N1[C@H](C)CN(c2nc(=O)n3c4c(c(-c5cc(Cl)c(F)cc5F)c(C(F)(F)F)cc24)SC[C@@H]3CC2CCN(CC)CC2)C[C@@H]1C` [Example 13-86]: the BBB activity result was “− (Compounds that did not meet this threshold are indicated as “−”)”.
